In assay [1] the test system is Glomerella lagenarium (Colletotrichum lagenarium). Nature of the assay: Fungicidal activity against Glomerella lagenarium (Colletotrichum lagenarium) liquid culture / cucumber / preventative (anthracnose). Format: cell-based. The following applies: Colletotrichum orbiculare, 72 h; 20 ppm in the applied formulation; liquid culture (PDB), growth inhibition measured photometrically 3 to 4 days after application; vs untreated control; read-out: disease control. As to the method: Mycelia fragments or conidia suspensions of a fungus prepared either freshly from liquid cultures of the fungus or from cryogenic storage, are directly mixed into nutrient broth. DMSO solutions of the test compound (max. 10 mg/ml) are diluted with 0.025% Tween20 by a factor of 50 and 10 μl of this solution is pipetted into a microtiter plate (96-well format). The nutrient broth containing the fungal spores/mycelia fragments is then added to give an end concentration of the tested compound. The test plates are incubated in the dark at 24° C. and 96% relative humidity. The inhibition of fungal growth is determined photometrically after 2 to 7 days, depending on the pathosystem, and percent antifungal activity relative to the untreated check is calculated.
Conidia of the fungus from cryogenic storage are directly mixed into nutrient broth (PDB—potato dextrose broth). After placing a (DMSO) solution of test compound into a microtiter plate (96-well format), the nutrient broth containing the fungal spores is added. The test plates are incubated at 24° C. and the inhibition of growth is measured photometrically 3 to 4 days after application.
The following compounds at 20 ppm in the applied formulation give at least 80% disease control in this test when compared to untreated control under the same conditions, which show extensive disease development.

For assay [2], the system named is Puccinia recondita f. sp. Tritici. Nature of the assay: Fungicidal activity against Puccinia recondita f. sp. Tritici / wheat / leaf disc preventative (brown rust). The class given is in vivo. Conditions: foliar, 200 ppm in the applied formulation, wheat leaf segments cv. Kanzler, inoculated 1 day after application, vs untreated control, read-out: disease control. As to the method: Leaf disks or leaf segments of various plant species are cut from plants grown in a greenhouse. The cut leaf disks or segments are placed in multiwell plates (24-well format) onto water agar. The leaf disks are sprayed with a test solution before (preventative) or after (curative) inoculation. Compounds to be tested are prepared as DMSO solutions (max. 10 mg/ml) which are diluted to the appropriate concentration with 0.025% Tween20 just before spraying. The inoculated leaf disks or segments are incubated under defined conditions (temperature, relative humidity, light, etc.) according to the respective test system. A single evaluation of disease level is carried out 3 to 14 days after inoculation, depending on the pathosystem. Percent disease control relative to the untreated check leaf disks or segments is then calculated. Wheat leaf segments cv. Kanzler were placed on agar in multiwell plates (24-well format) and sprayed with the formulated test compound diluted in water. The leaf disks were inoculated with a spore suspension of the fungus 1 day after application. The inoculated leaf segments were incubated at 19° C. and 75% relative humidity (rh) under a light regime of 12 hours light/12 hours darkness in a climate cabinet and the activity of a compound was assessed as percent disease control compared to untreated when an appropriate level of disease damage appears in untreated check leaf segments (7 to 9 days after application). The following compounds at 200 ppm in the applied formulation give at least 80% disease control in this test when compared to untreated control leaf disks under the same conditions, which show extensive disease development.

For the next assay, the system named is Phakopsora pachyrhizi. The experiment in a line: Fungicidal activity against Phakopsora pachyrhizi / soybean / leaf disc preventative (Asian soybean rust). The following applies: foliar, 200 ppm in the applied formulation, soybean leaf disks, vs untreated control, read-out: disease control. Format: in vivo. As to the method: Leaf disks or leaf segments of various plant species are cut from plants grown in a greenhouse. The cut leaf disks or segments are placed in multiwell plates (24-well format) onto water agar. The leaf disks are sprayed with a test solution before (preventative) or after (curative) inoculation. Compounds to be tested are prepared as DMSO solutions (max. 10 mg/ml) which are diluted to the appropriate concentration with 0.025% Tween20 just before spraying. The inoculated leaf disks or segments are incubated under defined conditions (temperature, relative humidity, light, etc.) according to the respective test system. A single evaluation of disease level is carried out 3 to 14 days after inoculation, depending on the pathosystem. Percent disease control relative to the untreated check leaf disks or segments is then calculated. Soybean leaf disks are placed on water agar in multiwell plates (24-well format) and sprayed with the formulated test compound diluted in water. One day after application leaf discs are inoculated by spraying a spore suspension on the lower leaf surface. After an incubation period in a climate cabinet of 24-36 hours in darkness at 20° C. and 75% rh leaf disc are kept at 20° C. with 12 hours light/12 hours and 75% rh. The activity of a compound is assessed as percent disease control compared to untreated when an appropriate level of disease damage appears in untreated check leaf disks (12 to 14 days after application). The following compounds at 200 ppm in the applied formulation give at least 80% disease control in this test when compared to untreated control leaf disks under the same conditions, which show extensive disease development.

`CC(C=NOC1CCCCO1)NC(=O)c1ccc(-c2noc(C(F)(F)F)n2)cc1` (centres unmarked) [Compound 1.25, N-(1-methyl-2-tetrahydropyran-2-yloxyimino-ethyl)-4-[5-(trifluoromethyl)-1,2,4-oxadiazol-3-yl]benzamide]: in assay [1], the inhibition of growth at 20 ppm was at least 80%. Moreover, the pest or weed control at 200 ppm (in assay [2]; in the assay on Phakopsora pachyrhizi) was at least 80% in each case.
For the compound `CCCCON=CC(C)NC(=O)c1ccc(-c2noc(C(F)(F)F)n2)cc1` (centres unmarked) [Compound 1.40, N-(2-butoxyimino-1-methyl-ethyl)-4-[5-(trifluoromethyl)-1,2,4-oxadiazol-3-yl]benzamide], the inhibition of growth at 20 ppm in assay [1] was at least 80%. For the same compound, the pest or weed control at 200 ppm (in assay [2]; in the assay on Phakopsora pachyrhizi) was at least 80% in each case.
On to `CC(C=NOC(C)(C)C)NC(=O)c1ccc(-c2noc(C(F)(F)F)n2)cc1` (centres unmarked) [Compound 1.45, N-(2-tert-butoxyimino-1-methyl-ethyl)-4-[5-(trifluoromethyl)-1,2,4-oxadiazol-3-yl]benzamide], for which, in assay [1], the inhibition of growth at 20 ppm is at least 80%. Moreover, the pest or weed control at 200 ppm (in assay [2]; in the assay with Phakopsora pachyrhizi) was at least 80% each time.
As for `CC(C=NOCc1ccccc1CC(=O)O)NC(=O)c1ccc(-c2noc(C(F)(F)F)n2)cc1` (centres unmarked) [Compound 1.48, 2-[2-[[2-[[4-[5-(trifluoromethyl)-1,2,4-oxadiazol-3-yl]benzoyl]amino]propylideneamino]oxymethyl]phenyl] acetic acid], the inhibition of growth at 20 ppm in assay [1] is at least 80%. The pest or weed control at 200 ppm (in assay [2]; in the assay on Phakopsora pachyrhizi) was at least 80% throughout.
As to `COC(=O)Cc1ccccc1CON=CC(C)NC(=O)c1ccc(-c2noc(C(F)(F)F)n2)cc1` (centres unmarked) [Compound 1.49, methyl 2-[2-[[2-[[4-[5-(trifluoromethyl)-1,2,4-oxadiazol-3-yl]benzoyl]amino]propylideneamino]oxymethyl]phenyl]acetate], in assay [1], the inhibition of growth at 20 ppm is at least 80%. Besides, the pest or weed control at 200 ppm in assay [2] is at least 80%.
For `CC(C=NOC(C)C)NC(=O)c1ccc(-c2noc(C(F)(F)F)n2)cc1` (centres unmarked) [Compound 1.50, N-(2-isopropoxyimino-1-methyl-ethyl)-4-[5-(trifluoromethyl)-1,2,4-oxadiazol-3-yl]benzamide], in assay [1], the inhibition of growth at 20 ppm was at least 80%. The pest or weed control at 200 ppm (in assay [2]; with Phakopsora pachyrhizi) was at least 80% in each case.
Turning to `C=C(Cl)CON=CC(C)NC(=O)c1ccc(-c2noc(C(F)(F)F)n2)cc1` (centres unmarked) [Compound 1.56, N-[2-(2-chloroallyloxy-imino)-1-methyl-ethyl]-4-[5-(trifluoromethyl)-1,2,4-oxadiazol-3-yl]benzamide], the inhibition of growth at 20 ppm in assay [1] is at least 80%. In addition, the pest or weed control at 200 ppm (in assay [2]; in the assay on Phakopsora pachyrhizi) was at least 80% each time.
Consider `O=C(NCC=NOCc1ccc([N+](=O)[O-])cc1)c1ccc(-c2noc(C(F)(F)F)n2)cc1` [Compound 1.61, N-[2-[(4-nitrophenyl)methoxyimino]ethyl]-4-[5-(trifluoromethyl)-1,2,4-oxadiazol-3-yl]benzamide], for which the pest or weed control at 200 ppm (in assay [2]; in the assay on Phakopsora pachyrhizi) was at least 80% in each case.
With `COc1cccc(CON=CCNC(=O)c2ccc(-c3noc(C(F)(F)F)n3)cc2)c1` [Compound 1.62, N-[2-[(3-methoxyphenyl)methoxyimino]ethyl]-4-[5-(trifluoromethyl)-1,2,4-oxadiazol-3-yl]benzamide], the inhibition of growth at 20 ppm in assay [1] is at least 80%. The pest or weed control at 200 ppm (in assay [2]; in the assay on Phakopsora pachyrhizi) was at least 80% throughout.
Turning to `COc1ccc(CON=CCNC(=O)c2ccc(-c3noc(C(F)(F)F)n3)cc2)cc1` [Compound 1.64, N-[2-[(4-methoxyphenyl)methoxyimino]ethyl]-4-[5-(trifluoromethyl)-1,2,4-oxadiazol-3-yl]benzamide], the inhibition of growth at 20 ppm in assay [1] is at least 80%. Further, the pest or weed control at 200 ppm (in assay [2]; with Phakopsora pachyrhizi) was at least 80% each time.
In the case of `O=C(O)CON=CCNC(=O)c1ccc(-c2noc(C(F)(F)F)n2)cc1` [Compound 1.65, 2-[2-[[4-[5-(trifluoromethyl)-1,2,4-oxadiazol-3-yl]benzoyl]amino]ethylideneamino] oxyacetic acid], the inhibition of growth at 20 ppm in assay [1] was at least 80%. Moreover, the pest or weed control at 200 ppm (in assay [2]; in the assay on Phakopsora pachyrhizi) was at least 80% each time.
As for `O=C(NCC=NOCc1ccccc1Cl)c1ccc(-c2noc(C(F)(F)F)n2)cc1` [Compound 1.67, N-[2-[(2-chlorophenyl)methoxyimino]ethyl]-4-[5-(trifluoromethyl)-1,2,4-oxadiazol-3-yl]benzamide], in assay [1], the inhibition of growth at 20 ppm is at least 80%. The pest or weed control at 200 ppm (in assay [2]; in the assay with Phakopsora pachyrhizi) was at least 80% each time.
On to `COc1ccccc1CON=CCNC(=O)c1ccc(-c2noc(C(F)(F)F)n2)cc1` [Compound 1.68, N-[2-[(2-methoxyphenyl)methoxyimino]ethyl]-4-[5-(trifluoromethyl)-1,2,4-oxadiazol-3-yl]benzamide], for which, in assay [1], the inhibition of growth at 20 ppm was at least 80%. In addition, the pest or weed control at 200 ppm (in assay [2]; in the assay on Phakopsora pachyrhizi) was at least 80% in each case.
`O=C(NCC=NOCc1ccccc1F)c1ccc(-c2noc(C(F)(F)F)n2)cc1` [Compound 1.69, N-[2-[(2-fluorophenyl)methoxyimino]ethyl]-4-[5-(trifluoromethyl)-1,2,4-oxadiazol-3-yl]benzamide]: the inhibition of growth at 20 ppm in assay [1] is at least 80%. For the same compound, the pest or weed control at 200 ppm (in assay [2]; in the assay on Phakopsora pachyrhizi) was at least 80% in each case.
Consider `CC(CNC(=O)c1ccc(-c2noc(C(F)(F)F)n2)cc1)=NOCc1ccc([N+](=O)[O-])cc1` [Compound 1.105, N-[2-[(4-nitrophenyl)methoxyimino]propyl]-4-[5-(trifluoromethyl)-1,2,4-oxadiazol-3-yl]benzamide], for which, in assay [2], the pest or weed control at 200 ppm is at least 80%.
Regarding `COc1cccc(CON=C(C)CNC(=O)c2ccc(-c3noc(C(F)(F)F)n3)cc2)c1` [Compound 1.106, N-[2-[(3-methoxyphenyl)methoxyimino]propyl]-4-[5-(trifluoromethyl)-1,2,4-oxadiazol-3-yl]benzamide], the inhibition of growth at 20 ppm in assay [1] is at least 80%. Besides, the pest or weed control at 200 ppm in assay [2] is at least 80%.
As to `CC(CNC(=O)c1ccc(-c2noc(C(F)(F)F)n2)cc1)=NOCC(=O)O` [Compound 1.109, 2-[[1-methyl-2-[[4-[5-(trifluoromethyl)-1,2,4-oxadiazol-3-yl]benzoyl]amino]ethylidene]amino] oxyacetic acid], in assay [1], the inhibition of growth at 20 ppm was at least 80%. Further, the pest or weed control at 200 ppm in assay [2] is at least 80%.
Turning to `CC(CNC(=O)c1ccc(-c2noc(C(F)(F)F)n2)cc1)=NOCc1ccccc1CC(=O)O` [Compound 1.136, 2-[2-[[[1-methyl-2-[[4-[5-(trifluoromethyl)-1,2,4-oxadiazol-3-yl]benzoyl]amino]ethylidene]amino]oxymethyl]phenyl]acetic acid], the inhibition of growth at 20 ppm in assay [1] was at least 80%. Also, in assay [2], the pest or weed control at 200 ppm was at least 80%.
